Test results from publication PMC9445672, “A novel angiotensin-I-converting enzyme inhibitory peptide from oyster: Simulated gastro-intestinal digestion, molecular docking, inhibition kinetics and antihypertensive effects in rats” (Frontiers in Nutrition, 2022).
Like-named read-outs stand apart in the source and are kept apart here. Residues, ends and D or L forms follow the SMILES beside them.

Assays:
[1] = molecular target: T1, Angiotensin-I converting enzyme (ACE) (from rabbit lungs) (Oryctolagus cuniculus, UniProt P12822); experiment: Kinetics of ACE inhibition (Lineweaver-Burk plot); format: biochemical; details: HHL 1–10 mM, peptide 1 and 2 mg/mL
T1 construct: Angiotensin-I converting enzyme (ACE) (from rabbit lungs); purchased Sigma-Aldrich Co. (St. Louis, MO, United States); host or cells: rabbit lung tissue
T1 sequence (P12822 34-1310): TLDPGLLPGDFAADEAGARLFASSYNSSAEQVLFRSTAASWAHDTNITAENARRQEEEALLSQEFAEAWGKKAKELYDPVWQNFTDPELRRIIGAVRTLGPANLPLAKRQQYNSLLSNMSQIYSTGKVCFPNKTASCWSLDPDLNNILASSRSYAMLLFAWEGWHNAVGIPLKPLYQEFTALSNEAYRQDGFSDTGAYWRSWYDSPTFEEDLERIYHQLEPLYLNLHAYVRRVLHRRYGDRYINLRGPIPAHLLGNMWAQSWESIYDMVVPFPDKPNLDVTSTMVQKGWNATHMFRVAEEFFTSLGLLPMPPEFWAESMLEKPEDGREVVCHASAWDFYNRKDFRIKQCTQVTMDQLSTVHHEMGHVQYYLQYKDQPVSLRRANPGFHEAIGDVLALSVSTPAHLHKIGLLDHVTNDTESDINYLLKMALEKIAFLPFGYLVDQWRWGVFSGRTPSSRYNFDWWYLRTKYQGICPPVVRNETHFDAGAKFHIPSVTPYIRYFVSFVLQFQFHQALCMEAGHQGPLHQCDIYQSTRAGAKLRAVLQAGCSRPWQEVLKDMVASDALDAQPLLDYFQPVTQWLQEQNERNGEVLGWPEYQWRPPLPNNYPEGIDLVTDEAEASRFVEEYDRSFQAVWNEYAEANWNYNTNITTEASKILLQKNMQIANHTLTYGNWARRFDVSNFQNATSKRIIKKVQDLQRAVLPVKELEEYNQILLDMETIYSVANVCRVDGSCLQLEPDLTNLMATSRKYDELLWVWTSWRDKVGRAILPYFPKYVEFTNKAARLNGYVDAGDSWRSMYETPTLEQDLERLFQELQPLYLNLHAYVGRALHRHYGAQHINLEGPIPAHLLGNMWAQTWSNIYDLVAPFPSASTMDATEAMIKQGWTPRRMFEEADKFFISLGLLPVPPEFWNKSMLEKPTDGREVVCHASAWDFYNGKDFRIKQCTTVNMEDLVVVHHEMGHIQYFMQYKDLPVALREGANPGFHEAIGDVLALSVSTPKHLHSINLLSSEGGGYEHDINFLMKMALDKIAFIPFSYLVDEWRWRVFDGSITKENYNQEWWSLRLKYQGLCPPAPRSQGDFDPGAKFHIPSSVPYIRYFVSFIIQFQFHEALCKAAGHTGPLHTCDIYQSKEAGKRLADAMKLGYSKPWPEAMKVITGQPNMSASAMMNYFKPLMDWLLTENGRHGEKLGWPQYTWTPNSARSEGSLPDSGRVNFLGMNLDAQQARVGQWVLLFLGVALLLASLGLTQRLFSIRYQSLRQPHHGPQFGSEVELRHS
Method: To explore the inhibition pattern of the peptide and clarify the kinetics of ACEI activity, the Lineweaver-Burk plot was employed in our study. The various concentrations of the HHL solution were 1, 2, 5, 8, and 10 mM, and the concentration of synthesized peptide was set as 2 mg/mL. Various concentrations of HHL and peptide were incubated in ACE solutions. The Y-intercept of the Lineweaver-Burk plot represents the reciprocal of the maximum velocity (Vmax^–1), while the X-intercept is the reciprocal of the Michaelis-Menten constant (Km^–1).

[2] = molecular target: T1, Angiotensin-I converting enzyme (ACE) (from rabbit lungs); experiment: ACE-inhibitory activity assay (HHL substrate, HPLC of hippuric acid); format: biochemical
Method: The ACEI activity of the synthesized peptides was measured following the reported method with a minor modification ([22]). The experiment was carried out in a 1.5 mL PE tube. Briefly, for each assay, 20 μL of the inhibitor (1 mg/ml) was mixed with 120 μL of the HHL solution in the concentration of 5 mM. The mixture was first preincubated at a constant temperature of 37°C for 5 min, 10 μL ACE (0.1 U/mL) was then added to start the reaction, and to incubate at 37°C for 60 min. In the end, 150 μl HCl (1M) was used to terminate the reaction. Meanwhile, the inhibitor solution was replaced with 20 μL boric acid buffer solution (0.1 mol/L, pH 7.3, containing 0.3 mol/L NaCl) as a blank control group. The HPLC system was equipped with a ZORBAX Eclipse SB-C18 column (5 μm particle size, 4.6 × 150 mm). To analyze the releasing amount of hippuric acid under the action of ACE, the elution was conducted in 25% Mobile Phase A (ACN) and 75% Mobile Phase B (0.05% TFA in ultrapure water) for 25 min with a flow rate of 0.8 mL/min. The ACE inhibitory activity percentage (%) was calculated based on the equation below:
ACEinhibitionrate(%)=(B-S)/B×100
Where B and S are the chromatographic peak areas of the control group and the sample tested, respectively. IC50 is the inhibitor concentration capable of inhibiting 50% of ACE activity under the described experimental conditions, which was estimated by non-linear regression of ACE inhibition (%) against different inhibitor concentrations by using SPSS software.

[3] = molecular target: T1, Angiotensin-I converting enzyme (ACE) (from rabbit lungs); experiment: as above; format: biochemical; details: peptide 2 mg/mL, HHL 5 mM, ACE 0.1 U/mL, 37°C, 5 min pre-incubation, 60 min, triplicate
[4] = tested on: SHRs (spontaneously hypertensive rats); experiment: Blood pressure of SHRs after single intragastric administration (tail-cuff); format: in vivo, rat
Method: Male SHRs aged 10–12 weeks old, body weight (BW) of 220–250 g, and blood pressure over 180 mmHg were purchased from Trophic Animal Feed High-tech Co. Ltd., (Nantong, China). Six SHRs were administrated individually in each cage with the stable room temperature (25 ± 0.5°C), the humidity of 55 ± 5%, and a 12-h light to12-h dark cycle. Food and water were freely accessed. Rats were accustomed to the above environment for 2 weeks before the experiment. […] The SHRs were randomly grouped in 3. Rats were gavage administered with peptide at 15 mg/kg⋅BW/day in the experiment group. […] All rats were gavaged with their daily dose at 8 am, and the blood pressure was measured every 3 h by 4 times, which was using the tail-cuff method ([27]). Briefly, rats were covered with a fixed device but could let their tail leak out (MK2000ST, Muromachi Kikai Co., Ltd., Japan). A cuff was curled around the tail to measure the diastolic blood pressure (DBP) and systolic blood pressure (SBP).

[5] = tested on: ACE; details: cited from earlier work
Description: The inhibitory patterns of the ACEI peptides mainly contain competitive inhibition, non-competitive inhibition, and mixed inhibition according to their various structures. […] Non-competitive A ... || The Lineweaver-Burk plots were employed to elucidate the ACE inhibition kinetic of the synthetic peptide […], shown in Figure 2B. Whereas the Vmax was the same when the concentrations of the inhibitory peptide increased, the Km/Vmax value increased. […] Among all the ACE inhibition patter ...

[6] = tested on: Ren1 / Adrb3 expression in SHRs; parameters: method as in 2 sources, one per row (each row's own in cited_ref): ref [45] = [45]; PMID 24404915; doi:10.1021/jf405189y; 45. Yu ZP Yin YG Zhao WZ Chen F Liu JB . Antihypertensive effect of angiotensin-converting enzyme inhibitory peptide RVPSL on spontaneously hypertensive rats by regulating gene expression of the renin ||| ref [46] = [46]; PMID 26517713; doi:10.1371/journal.pone.0142016; 46. Feng J Dai Z Zhang Y Meng L Ye J Ma X . Alteration of gene expression profile in kidney of spontaneously hypertensive rats treated with protein hydrolysate of blue mussel ( Mytilus edulis ) by DNA; details: SHRs orally administered 50 mg/kg; ref [45]; cited from earlier work
[7] = peptide 1 mg/mL, HHL 5 mM, ACE 0.1 U/mL, 37°C, 5 min pre-incubation, 60 min, HPLC of hippuric acid, triplicate
[8] = clinical drugs for hypertension, ref [30]
[9] = food-derived peptides, ref [41], [42]
[10] = food-derived peptides, ref [32], [37]
[11] = food-derived peptides, ref [43], [44]

CC(C)C[C@H](NC(=O)[C@H](Cc1ccc(O)cc1)NC(=O)[C@H](CCC(=O)O)NC(=O)[C@H](C)N)C(=O)N[C@@H](CS)C(=O)N[C@@H](CCC(=O)O)C(=O)N[C@@H](C)C(=O)N[C@@H](CS)C(=O)O (H-AEYLCEAC-OH)
Km/Vmax value with increasing inhibitory peptide concentration [1]: increased | ACE inhibition rate (%) Concentration (1 mg/mL) [2, 7]: 14.2857% | inhibition at 1000 µg/mL ([2]; peptide 1 mg/mL, HHL 5 mM, ACE 0.1 U/mL, 37°C, 5 min pre-incubation, 60 min, HPLC of hippuric acid, triplicate, read-out: ACE inhibition rate (%) Concentration (1 mg/mL)): 14.3% | IC50 ([2]; peptide 0.2–15 mg/mL, HPLC method, regression y = −0.0073x^2 + 0.1616x −0.0105 (R^2 = 0.99), read-out: IC50 of ACE inhibition): 4.29 mM | ACE inhibition rate (%) Concentration (2 mg/mL) [3]: 29.3266% | inhibition at 2000 µg/mL ([3]; read-out: ACE inhibition rate (%) Concentration (2 mg/mL)): 29.3%

C[C@H](CS)C(=O)N1CCC[C@H]1C(=O)O [captopril]
blood pressure reduction in rats with hypertension, overall comparison ([4]; all data of single and 4-week administration in SHRs): better than AEYLCEAC | SBP after a single intragastric administration ([4]; male SHRs, gavage, peptide 15 mg/kg BW, captopril 10 mg/kg BW, 3 to 12 h, vs water control, p < 0.01): SBP in control group was significantly higher than that in the peptide group and positive group

CCOC(=O)[C@H](CCc1ccccc1)N[C@@H](C)C(=O)N1CCC[C@H]1C(=O)O [enalapril]
ACE inhibitory pattern [5, 8]: competitive inhibitors

NCCCC[C@H](N[C@@H](CCc1ccccc1)C(=O)O)C(=O)N1CCC[C@H]1C(=O)O [lisinopril]
ACE inhibitory pattern [5, 8]: competitive inhibitors

ALVY [from Gac Seed Protein Hydrolysates]
ACE inhibitory pattern [5, 9]: competitive

AVKVL [derived from hazelnut]
ACE inhibitory pattern [5, 10]: Non-competitive

EPNGLLLPQY [from walnut protein]
ACE inhibitory pattern [5, 11]: mixed pattern

ETSGMKPTEL [isolated from longan seeds]
ACE inhibitory pattern [5, 10]: Non-competitive

ISSMGILVCL [isolated from longan seeds]
ACE inhibitory pattern [5, 10]: Non-competitive

LDVSWASD
ACE inhibition rate (%) Concentration (1 mg/mL) [2, 7]: 3.6918% | ACE inhibition rate (%) Concentration (2 mg/mL) [3]: 13.9971%

LSSNLHG
ACE inhibition rate (%) Concentration (1 mg/mL) [2, 7]: –1.1236% | ACE inhibition rate (%) Concentration (2 mg/mL) [3]: –5.7205%

NMAINPSKENLCSTFCK [isolated from casein hydrolysates]
ACE inhibitory pattern [5, 11]: mixed pattern

QAGLSPVR [from tilapia skin gelatin]
ACE inhibitory pattern [5, 10]: Non-competitive

QEVVMGEC
ACE inhibition rate (%) Concentration (1 mg/mL) [2, 7]: –3.8523% | ACE inhibition rate (%) Concentration (2 mg/mL) [3]: –5.0688%

QLVP [from Mycelia of Ganoderma Lucidum]
ACE inhibitory pattern [5, 11]: mixed pattern

RSNDGPI
ACE inhibition rate (%) Concentration (1 mg/mL) [2, 7]: –13.9647% | ACE inhibition rate (%) Concentration (2 mg/mL) [3]: –4.3447%

RVPSL [hydrolyzed from egg white protein]
Ren1 expression [6]: downregulated

SSYYPFK [from naked oat globulin hydrolysates]
ACE inhibitory pattern [5, 9]: competitive

TLVGR [derived from hazelnut]
ACE inhibitory pattern [5, 10]: Non-competitive

TNEVEGPS
ACE inhibition rate (%) Concentration (1 mg/mL) [2, 7]: –4.8796% | ACE inhibition rate (%) Concentration (2 mg/mL) [3]: 7.9218%

VGLPNSR [from tilapia skin gelatin]
ACE inhibitory pattern [5, 10]: Non-competitive

VILGDADLP
ACE inhibition rate (%) Concentration (1 mg/mL) [2, 7]: 1.6051% | ACE inhibition rate (%) Concentration (2 mg/mL) [3]: 4.7219%

YLVR [derived from hazelnut]
ACE inhibitory pattern [5, 10]: Non-competitive
